{"source": "patent US20220162221A1", "about": "“Imaging Agents” (UCB Biopharma SRL, priority 2017, published 2022)", "key": {"[1]": {"system": "panel of 80 targets including receptors, transporters, enzymes and ion channels", "assay": "Selectivity panel of 80 targets (CEREP)", "format": "binding", "procedure": "(§1) To assess compound (I) affinity and selectivity for D1, it has been tested in competitive radioligand binding assays. Competitive radioligand binding assays were then used to measure (±)-I affinity for D1 receptor and assess its selectivity regarding a large panel of 80 related and unrelated targets.\n(§2) Compound selectivity for human D1R was assessed at 10 μM at CEREP against a panel of 80 targets (n=1 with data in duplicate) including receptors, transporters, enzymes and ion channels. Potentially relevant affinity was identified for only 3 targets: dopamine D5 receptor (D5R), tachykinin NK1 receptors and adenosine transporter (ADET) with >60% inhibition at 10 μM of compound (±)-(I). Affinity (pKi) of compound of formula (±)-I for human DSR, NK1 receptor and ADET were then measured."}, "[2]": {"system": "adenosine transporter (ADET)", "assay": "Adenosine transporter binding, CEREP panel", "design": "species or system human", "details": "at 10 μM, n=1 in duplicate", "procedure": "as §2"}, "human D1R": {"molecular_target": "human D1R (Homo sapiens, UniProt P21728)", "sequence (P21728 whole entry)": "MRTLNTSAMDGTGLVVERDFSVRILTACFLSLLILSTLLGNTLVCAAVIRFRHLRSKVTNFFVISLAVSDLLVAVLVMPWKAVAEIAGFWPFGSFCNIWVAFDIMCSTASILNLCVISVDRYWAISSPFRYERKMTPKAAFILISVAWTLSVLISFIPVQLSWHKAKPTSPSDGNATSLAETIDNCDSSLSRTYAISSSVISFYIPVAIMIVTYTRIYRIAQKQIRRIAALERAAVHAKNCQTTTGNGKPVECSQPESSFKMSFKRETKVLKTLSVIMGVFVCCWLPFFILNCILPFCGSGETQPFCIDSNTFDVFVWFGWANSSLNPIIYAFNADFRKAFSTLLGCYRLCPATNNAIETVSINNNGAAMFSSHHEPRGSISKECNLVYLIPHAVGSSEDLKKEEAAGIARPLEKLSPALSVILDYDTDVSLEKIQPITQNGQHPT", "assay": "[3H]SCH23390 radioligand competitive binding (CEREP)", "design": "purchased CEREP (Celle l'Evescault, France), contract assay", "procedure": "as §1\nAffinity (pKi) of Compound of formula (±)-(I) for recombinant human D1R was measured at CEREP (Celle l'Evescault, France) by [^3]SCH23390 radioligand competitive binding experiments."}, "hD1R in SK-N-MC cells": {"molecular_target": "hD1R in SK-N-MC cells (Homo sapiens, UniProt P21728)", "sequence (P21728 whole entry)": "as above", "assay": "cAMP HTRF D1 functional assay", "details": "cAMP HTRF", "experimental": "The reaction was terminated by consecutive additions of 10 μL d2 detection reagent and the cryptate reagent both diluted in lysis buffer. After a period of 60 min at room temperature, changes in HTRF emission ratio were determined and transformed in [cAMP]i using a standard curve."}, "tachykinin NK1 receptors": {"molecular_target": "T1, tachykinin NK1 receptors (Homo sapiens, UniProt P25103)", "T1 construct": "purchased CEREP, contract assay", "T1 sequence (P25103 whole entry)": "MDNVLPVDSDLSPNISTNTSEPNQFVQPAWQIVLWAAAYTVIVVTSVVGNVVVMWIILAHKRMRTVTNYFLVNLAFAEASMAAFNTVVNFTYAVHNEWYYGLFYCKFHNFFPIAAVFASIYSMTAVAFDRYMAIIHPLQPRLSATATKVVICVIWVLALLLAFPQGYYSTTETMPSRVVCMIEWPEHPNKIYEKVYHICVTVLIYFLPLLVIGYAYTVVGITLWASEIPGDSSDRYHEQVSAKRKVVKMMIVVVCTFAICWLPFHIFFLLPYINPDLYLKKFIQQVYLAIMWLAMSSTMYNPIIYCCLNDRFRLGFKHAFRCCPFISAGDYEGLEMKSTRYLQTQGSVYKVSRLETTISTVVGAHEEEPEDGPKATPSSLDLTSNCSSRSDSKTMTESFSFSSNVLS", "assay": "NK1 binding, CEREP panel", "details": "n=1 in duplicate", "procedure": "as §2"}, "[3]": {"molecular_target": "T2, dopamine D5 receptor (D5R) (Homo sapiens, UniProt P21918)", "T2 construct": "purchased CEREP, contract assay", "T2 sequence (P21918 whole entry)": "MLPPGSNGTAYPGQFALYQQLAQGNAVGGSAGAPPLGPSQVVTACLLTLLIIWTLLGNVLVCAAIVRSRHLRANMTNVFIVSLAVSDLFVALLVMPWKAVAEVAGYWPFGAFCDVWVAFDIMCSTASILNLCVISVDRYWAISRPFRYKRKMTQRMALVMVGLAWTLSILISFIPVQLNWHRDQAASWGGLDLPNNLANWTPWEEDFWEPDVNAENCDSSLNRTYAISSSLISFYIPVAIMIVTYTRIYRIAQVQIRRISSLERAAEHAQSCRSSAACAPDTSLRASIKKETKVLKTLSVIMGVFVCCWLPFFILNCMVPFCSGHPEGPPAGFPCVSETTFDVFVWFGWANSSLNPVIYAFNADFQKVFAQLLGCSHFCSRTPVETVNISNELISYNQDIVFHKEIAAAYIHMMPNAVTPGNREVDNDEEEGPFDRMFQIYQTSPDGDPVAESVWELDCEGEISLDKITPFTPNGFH", "assay": "D5R binding, CEREP panel and pKi follow-up", "procedure": "as §2"}, "[4]": {"details": "competitive radioligand binding"}}}
{"smiles": "Cc1c(-c2ccc(Oc3nccc4occc34)cc2CF)n(C)c(=O)[nH]c1=O", "note": "(racemic) [Compound (±)-(I), 6-[2-(fluoromethyl)-4-(furo[3,2-c]pyridin-4-yloxy)phenyl]-1,5-dimethylpyrimidine-2,4(1H,3H)-dione]", "values": [{"measurement": "selectivity with respect to the other 79 tested targets", "setting": "[1]; D1-like vs other targets", "result": "more than 1000 fold"}, {"measurement": "pKi for the other 79 tested targets", "setting": "[1]; all targets other than D1R, D5R excepted by text", "result": "≤ 6.0"}, {"measurement": "binding to the other tested targets", "setting": "[1]; panel of 80 targets", "result": "do not significantly bind"}, {"measurement": "inhibition, adenosine transporter (ADET)", "setting": "[2]", "result": "> 60", "unit": "%"}, {"measurement": "Ki", "setting": "human D1R; [3H]SCH23390 competition, read-out: pKi for human D1R (converted)", "result": 0.631, "unit": "nM"}, {"measurement": "affinity for D1 receptor", "setting": "human D1R; [4]", "result": "subnanomolar range"}, {"measurement": "agonist-like effect on D1 receptor", "setting": "hD1R in SK-N-MC cells", "result": "significant direct agonist-like effect"}, {"measurement": "inhibition at 10 µM", "setting": "tachykinin NK1 receptors", "result": "> 60", "unit": "%"}, {"measurement": "Ki", "setting": "[3]", "result": 0.398, "unit": "nM"}, {"measurement": "inhibition at 10 µM", "setting": "[3]; at 10 μM, n=1 in duplicate", "result": "> 60", "unit": "%"}, {"measurement": "affinity for D5 receptor", "setting": "[3]; [4]", "result": "subnanomolar range"}]}
